From the Kinase Knowledgebase extract (Sharma et al. 2016)

target: ROCK2 (human) (UniProt O75116); experiment: Inhibition of ROCK2 Kinase Activity
Sequence (O75116 whole entry, looked up): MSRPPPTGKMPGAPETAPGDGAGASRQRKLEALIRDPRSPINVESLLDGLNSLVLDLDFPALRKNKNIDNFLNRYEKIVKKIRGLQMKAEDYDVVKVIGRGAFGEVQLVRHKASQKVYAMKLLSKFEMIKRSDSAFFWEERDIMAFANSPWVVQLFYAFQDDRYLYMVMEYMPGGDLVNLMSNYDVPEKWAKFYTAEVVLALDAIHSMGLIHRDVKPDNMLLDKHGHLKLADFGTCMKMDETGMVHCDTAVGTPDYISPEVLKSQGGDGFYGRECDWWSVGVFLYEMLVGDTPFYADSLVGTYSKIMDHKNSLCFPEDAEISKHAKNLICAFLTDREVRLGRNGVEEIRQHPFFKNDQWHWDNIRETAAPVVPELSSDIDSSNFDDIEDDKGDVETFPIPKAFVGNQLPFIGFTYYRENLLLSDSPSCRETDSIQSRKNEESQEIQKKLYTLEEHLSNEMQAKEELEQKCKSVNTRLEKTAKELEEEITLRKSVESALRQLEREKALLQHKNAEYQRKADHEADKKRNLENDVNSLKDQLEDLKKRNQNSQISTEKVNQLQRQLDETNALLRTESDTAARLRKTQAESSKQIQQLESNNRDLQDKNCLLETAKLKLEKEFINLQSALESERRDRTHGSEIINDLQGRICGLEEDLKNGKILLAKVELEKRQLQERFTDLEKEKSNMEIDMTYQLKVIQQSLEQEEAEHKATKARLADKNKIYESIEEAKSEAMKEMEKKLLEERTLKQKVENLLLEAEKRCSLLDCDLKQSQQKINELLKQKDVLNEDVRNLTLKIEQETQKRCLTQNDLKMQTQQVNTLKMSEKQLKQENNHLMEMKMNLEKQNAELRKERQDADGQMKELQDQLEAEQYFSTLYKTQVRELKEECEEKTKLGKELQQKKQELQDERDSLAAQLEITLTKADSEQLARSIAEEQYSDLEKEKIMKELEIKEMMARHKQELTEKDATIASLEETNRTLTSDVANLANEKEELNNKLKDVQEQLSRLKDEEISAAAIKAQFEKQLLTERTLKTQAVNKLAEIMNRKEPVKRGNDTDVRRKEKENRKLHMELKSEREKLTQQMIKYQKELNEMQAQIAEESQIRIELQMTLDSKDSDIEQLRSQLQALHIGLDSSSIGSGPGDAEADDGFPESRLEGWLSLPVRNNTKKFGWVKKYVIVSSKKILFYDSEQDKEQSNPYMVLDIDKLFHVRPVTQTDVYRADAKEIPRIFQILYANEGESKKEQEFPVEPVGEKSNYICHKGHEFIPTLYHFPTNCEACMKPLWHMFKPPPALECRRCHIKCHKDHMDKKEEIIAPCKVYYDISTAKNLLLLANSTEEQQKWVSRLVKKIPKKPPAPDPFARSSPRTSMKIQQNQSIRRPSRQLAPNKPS

| IC50 [nM] | SMILES |
| --- | --- |
| 35 | CN(C)CCNC(=O)c1cccc(CN(C(=O)c2nc3ccc(-c4cn[nH]c4)cc3s2)C2CC2)c1 |
| 30 | Fc1ccc2c(c1)CC(c1nc3ccc(-c4cn[nH]c4)cc3o1)CO2 (centres undefined) |
| 36 | Nc1cc(-c2ccc3nc(C4COc5ccccc5C4)oc3c2)ccn1 (centres undefined) |
| 9 | Cc1n[nH]cc1-c1ccc2nc(C3COc4ccc(F)cc4C3)oc2c1 (centres undefined) |
| 8 | COc1ccc2c(c1)CC(c1nc3ccc(-c4ccnc(N)c4)cc3o1)CO2 (centres undefined) |
| 14 | O=C(Nc1nc2ccc(-c3cn[nH]c3)cc2s1)C1COc2ccccc2C1 (centres undefined) |
| 0.87 | CN(C)CCCNC(=O)c1ccc2c(c1)CC(c1nc3ccc(-c4cn[nH]c4)cc3s1)CO2 (centres undefined) |
| 43 | COc1cccc(CN(CCN2CCCC2)C(=O)c2nc3ccc(-c4cn[nH]c4)cc3s2)c1 |
| 16 | COc1ccc2c(c1)CC(c1nc3ccc(-c4c[nH]nc4C)cc3o1)CO2 (centres undefined) |
| 518 | COc1ccc2c(c1)CC(c1nc3cc(-c4ccnc5[nH]ccc45)ccc3o1)CO2 (centres undefined) |
| 29 | NCCC(=O)N1CC(C(=O)Nc2nc3ccc(-c4cn[nH]c4)cc3s2)CC1c1ccccc1 (centres undefined) |
| 1930 | COc1cccc(C(=O)Nc2nc3ccc(-c4ccncc4)cc3s2)c1 |
| 5000 | COc1ccc(CNc2nc3ccc(-c4ccncc4)cc3s2)cc1 |
| 6 | COc1ccc2c(c1)CC(c1nc3ccc(-c4ccncc4)cc3o1)CO2 (centres undefined) |
| 1.5 | COc1ccc2c(c1)CC(c1nc3ccc(-c4cn[nH]c4)cc3o1)CO2 (centres undefined) |
| 40 | c1ccc(CCc2nc3ccc(-c4cn[nH]c4)cc3s2)cc1 |
| 7 | COc1cccc(CN(CCO)C(=O)c2nc3ccc(-c4cn[nH]c4)cc3s2)c1 |

| IC50 [nM] | SMILES |
| --- | --- |
| 4.3 | COc1cccc(CN(CCCN(C)C)C(=O)c2nc3ccc(-c4cn[nH]c4)cc3s2)c1 |
| 23 | Nc1nccc(-c2ccc3nc(C4COc5ccc(F)cc5C4)sc3c2)n1 (centres undefined) |
| 579 | COc1ccc2c(c1)CC(c1nc3cc(-c4ccncc4)cnc3s1)CO2 (centres undefined) |
| 2 | CN(C)CCN(Cc1ccccc1)C(=O)c1nc2ccc(-c3cn[nH]c3)cc2s1 |
| 50 | O=C(Nc1nc2ccc(-c3cn[nH]c3)cc2s1)[C@H]1CNC[C@@H]1c1ccccc1 |
| 44 | c1ccc(OCc2nc3ccc(-c4cn[nH]c4)cc3s2)cc1 |
| 8 | COc1cccc(CN(CCN(C)C)C(=O)Nc2nc3ccc(-c4cn[nH]c4)cc3s2)c1 |
| 1 | CN(C)CCN(Cc1cccc(F)c1)C(=O)c1nc2ccc(-c3cn[nH]c3)cc2s1 |
| 37 | NCC(=O)N1C[C@H](C(=O)Nc2nc3ccc(-c4cn[nH]c4)cc3s2)[C@@H](c2ccccc2)C1 |
| 17 | c1ccc2c(c1)OCC(c1nc3ccc(-c4cn[nH]c4)cc3s1)O2 (centres undefined) |
| 21 | COc1cccc(CNC(=O)c2nc3ccc(-c4cn[nH]c4)cc3s2)c1 |
| 219 | COc1ccc2c(c1)CC(c1nc3cc(-c4cn[nH]c4)ccc3o1)CO2 (centres undefined) |
| 22 | O=C(Nc1nc2ccc(-c3cn[nH]c3)cc2s1)C1COc2ccc(F)cc2C1 (centres undefined) |
| 18 | Nc1cc(-c2ccc3nc(C4COc5ccc(F)cc5C4)oc3c2)ccn1 (centres undefined) |
| 933 | COc1ccc2c(c1)CC(c1nc3cc(-c4ccnc(N)n4)ccc3o1)CO2 (centres undefined) |
| 42 | COc1cccc(OCc2nc3ccc(-c4cn[nH]c4)cc3s2)c1 |
| 21 | Nc1nccc(-c2ccc3nc(C4COc5ccccc5O4)oc3c2)n1 (centres undefined) |
